One assay addresses T1, human Flt-3 (Homo sapiens, UniProt P36888).
T1 construct: fused to the N-terminus of the intracellular domain (583-953 amino acids) thereof; made in house; host or cells: insect cells (baculovirus)
T1 sequence (P36888 583-953): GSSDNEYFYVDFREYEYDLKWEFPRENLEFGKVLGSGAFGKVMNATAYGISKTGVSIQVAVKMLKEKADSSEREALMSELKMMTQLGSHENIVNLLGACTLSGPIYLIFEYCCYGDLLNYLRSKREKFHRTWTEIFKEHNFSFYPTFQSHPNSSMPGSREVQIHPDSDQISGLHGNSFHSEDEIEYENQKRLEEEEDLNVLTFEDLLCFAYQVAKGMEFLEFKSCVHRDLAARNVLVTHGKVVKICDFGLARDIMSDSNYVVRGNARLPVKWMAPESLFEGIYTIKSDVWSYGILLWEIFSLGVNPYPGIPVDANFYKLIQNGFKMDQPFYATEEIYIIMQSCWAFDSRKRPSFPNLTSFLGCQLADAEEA
The assay can be described thus: Inhibitory activity on Flt-3 (GST-fused kinase, time-resolved fluoroimmunoassay). It counts as biochemical. The settings on record: tested compound 10 μmol/L, ATP 10 μmol/L, sixty minutes. The procedure: Flt-3 inhibitory activities were determined in the following manner.
Flt-3 was prepared by allowing baculovirus to infect insect cells, which baculovirus expresses a protein comprising human Flt-3 with […]. […] Separately was prepared a solution containing, at final concentrations, GST-fused Flt-3 (100 μg/L), Tris-Cl (pH 7.5) (20 mmol/L), β-glycerophosphate (5 mmol/L), dithiothreitol (DTT) (1 mmol/L), Na3VO4 (0.1 mmol/L), MgCl2 (10 mmol/L), MnCl2 (10 mmol/L), ATP (10 μmol/L), bovine serum albumin (BSA) (0.1%), DMSO (0.1%), and a tested compound (10 μmol/L). The solution (each 60 μL) was placed into the wells of the plate for the determination of kinase reaction, followed by enzymatic reaction at room temperature for sixty minutes. After reacting, the reaction was stopped by the addition of 50 μL of a 25 mmol/L aqueous solution of ethylenediaminetetraacetic acid. […] The relative activity (%) of a well in which the enzyme and tested compound were added was determined by calculation with the value in a well to which the tested compound was not added being 100% and the value in a well to which the enzyme and the tested compound were not added being 0%. The Flt-3 inhibitory activity (%) of the tested compound was determined by subtracting the relative activity (%) from 100.

In another assay the test system is MV-4-11. The assay can be described thus: Cytostatic activity on human acute myeloid leukemia cell line MV-4-11 (WST-1). The settings on record: MV4-11, 3.16 μmol/L, 72 hours, read-out: MV-4-11 (%) cytostatic rate. It counts as cell-based. As for the experimental part:
(§1) The cytostatic rates of a test compound on human acute myeloid leukemia cell lines MV-4-11 and ML-1, and human chronic myeloid leukemia cell line K562 were determined in the following manner.
(§2) Each cell was cultured using Roswell Park Memorial Institute's Medium (RPMI) 1640 (Gibco, Catalog No. 11875-093) containing 10% fetal bovine serum (Gibco, Catalogue No. 10437-028) and penicillin/streptomycin (1:1) (Gibco, Catalogue No. 15140-122). Each 80 μL of the MV-4-11 cell having a concentration of 7.5×10^4 cells/mL (or the ML-1 cell or K562 cell having a concentration of 2.5×10^4 cells/mL) was inoculated to wells of a TC MICROWELL 96U plate (Nalge Nunc International, Catalogue No. 163320) and was cultured in a 5% carbon dioxide gas incubator at 37° C. for 4 hours. As a blank, only RPMI medium (80 μL) was added to a well. Each 20 μL of a solution of the test compound in dimethyl sulfoxide (DMSO) which was prepared to make the final concentration to 3.16 μmol/L or 10 μmol/L, was added to the MV-4-11 cell, ML-1 cell and K562 cell, respectively. Each 20 μL of DMSO was added to the control well and the blank well to a final concentration of 0.1%. After adding the test compound, the cells were incubated in a 5% carbon dioxide gas incubator at 37° C. for 72 hours. After adding 20 μL of WST-1 reagent {4-[3-(4-iodophenyl)-2-(4-nitrophenyl)-2H-5-tetrazolio]-1,3-benzene disulfonate sodium salt) (Roche Diagnostics K.K., Catalogue No. 1644807) diluted to 50% with RPMI medium, the cells were further incubated at 37° C. for 2 hours. Then, the absorbances at 450 nm (reference wavelength: 690 nm) were determined with a microplate spectrophotometer SPECTRA max 340PC (Molecular Devices Corporation). The relative growth (%) of a well to which the test compound had been added was determined while setting the absorbance of a well to which not the test compound but DMSO alone had been added (control) at 100% and that of a well containing RPMI medium alone at 0%. The cytostatic rate (%) of the test compound was determined by subtracting the calculated relative growth from 100.
For orientation: Tetrazolium assays rely on reduction of a dye to a coloured formazan, in cell work by metabolically active cells.

For another assay, the system named is K562. The assay can be described thus: Cytostatic activity on human chronic myeloid leukemia cell line K562 (WST-1). It counts as cell-based. The settings on record: 10 μmol/L, 72 hours, read-out: K562 (%) cytostatic rate. As for the experimental part:
as §1, §2

Another assay deals with ML-1. Nature of the assay: Cytostatic activity on human acute myeloid leukemia cell line ML-1 (WST-1). It counts as cell-based. The settings on record: ML1, 3.16 μmol/L, 72 hours, read-out: ML-1 (%) cytostatic rate. The procedure: as §1, §2

Structures are written as SMILES. Structures can show the parent of a compound that is named as a salt.

In turn, `COCC(=O)N1CCN(C(=O)c2ccc(/C=C/c3n[nH]c4ccccc34)cc2)CC1` [Compound 69, (E)-4-methoxyacetyl-1-{4-[2-(1H-indazol-3-yl)vinyl]benzoyl}piperazine] yielded an inhibition at 10 µM against human Flt-3 of 95.8%. Still for that read-out and setting: next, `NC1CCN(C(=O)c2ccc(/C=C/c3n[nH]c4ccccc34)cc2)CC1` [Compound 78, (E)-1-{4-[2-(1H-indazol-3-yl)vinyl]benzoyl}-4-aminopiperidine]: 95.7%. On to `OCCOc1ccc(/C=C/c2n[nH]c3ccccc23)cc1` [Compound 4, (E)-3-{2-[4-(2-hydroxyethoxy)phenyl]vinyl}-1H-indazole], for which the results for the inhibition at 3.16 µM with MV-4-11 and with ML-1 were 91% and 27%, respectively. Also, the inhibition at 10 µM with K562 was 72%. For `CCOC(=O)COc1ccc(/C=C/c2n[nH]c3ccccc23)cc1` [Compound 3, ethyl (E)-4-[2-(1H-indazol-3-yl)vinyl]phenoxyacetate], the inhibition at 3.16 µM in the assay on MV-4-11 came to 37%. The inhibition at 10 µM in the assay on K562 was determined as 14%. Regarding `O=C(c1ccncc1)N1CCN(C(=O)c2ccc(/C=C/c3n[nH]c4ccccc34)cc2)CC1` [Compound 67, (E)-1-{4-[2-(1H-indazol-3-yl)vinyl]benzoyl}-4-(isonicotinoyl)piperazine], the inhibition at 10 µM against human Flt-3 was 96.4%. `O=C(NCCN1CCOCC1)c1ccc(/C=C/c2n[nH]c3ccccc23)cc1` [Compound 61, (E)-N-(2-morpholinoethyl)-4-[2-(1H-indazol-3-yl)vinyl]benzamide] yielded an inhibition at 10 µM against human Flt-3 of 91%. On to `CC(C)N(CCOc1ccc(/C=C/c2n[nH]c3ccccc23)cc1)C(C)C` [Compound 7, (E)-3-{2-[4-(2-diisopropylaminoethoxy)phenyl]vinyl}-1H-indazole hydrochloride], for which the inhibition at 3.16 µM stood at 97% in the assay with MV-4-11 and 89% in the assay on ML-1. The inhibition at 10 µM in the assay on K562 turned out to be 93%. For the compound `CS(=O)(=O)Nc1cc(/C=C/c2n[nH]c3ccccc23)ccc1OCCN1CCOCC1` [Compound 60, (E)-N-{5-[2-(1H-Indazol-3-yl)vinyl]-2-(2-morpholinoethoxy)phenyl}methanesulfonamide], the inhibition at 10 µM at human Flt-3 came to 90.2%. Same read-out and setting: to `NC1CCN(C(=O)c2ccc(/C=C/c3n[nH]c4ccccc34)cc2)C1` (centres unmarked) [Compound 71, (E)-1-{4-[2-(1H-indazol-3-yl)vinyl]benzoyl}-3-aminopyrrolidine dihydrochloride] belongs 95.2%. On the same count and under the same terms, to `O=C(c1ccc(/C=C/c2n[nH]c3ccccc23)cc1)N1CCNCC1` [Compound 64, (E)-1-{4-[2-(1H-indazol-3-yl)vinyl]benzoyl}piperazine] belongs 94.2%. Still for that read-out and setting: next, `CCN(CC)C(=O)c1ccc(/C=C/c2n[nH]c3ccccc23)cc1` [Compound 62, (E)-N,N-Diethyl-4-[2-(1H-indazol-3-yl)vinyl]benzamide hydrochloride]: 93.7%. Take `C(=C\c1n[nH]c2ccccc12)/c1cccnc1` [Compound 21, (E)-3-[2-(3-pyridyl)vinyl]-1H-indazole]: the inhibition at 3.16 µM in the assay on MV-4-11 worked out at 79%; with ML-1, 25%. Further, in the assay on K562, the inhibition at 10 µM was 41%.

Consider `O=C1CN(C(=O)c2ccc(/C=C/c3n[nH]c4ccccc34)cc2)CCN1` [Compound 70, (E)-4-{4-[2-(1H-indazol-3-yl)vinyl]benzoyl}piperadin-2-one], for which the “Inhibitory activity on Flt-3 (%)” value at human Flt-3 was 93.7%. `CC(=O)N(C)CC(=O)N1CCN(C(=O)c2ccc(/C=C/c3n[nH]c4ccccc34)cc2)CC1` [Compound 75, (E)-4-(N-acetyl-N-methylaminoacetyl)-1-(4-[2-(1H-indazol-3-yl)vinyl]benzoyl}piperazine] gave an inhibition at 10 µM on human Flt-3 of 95.1%. On the same count and under the same terms, to `CN(C)CCOc1ccc(/C=C/c2n[nH]c3ccccc23)cc1` [Compound 2, (E)-3-(2-[4-(2-dimethylaminoethoxy)phenyl]vinyl}-1H-indazole hydrochloride] belongs 97.8%; to `O=CN1CCN(C(=O)c2ccc(/C=C/c3n[nH]c4ccccc34)cc2)CC1` [Compound 65, (E)-4-{4-[2-(1H-indazol-3-yl)vinyl]benzoyl}piperazine-1-carbaldehyde], 94.4%. Still for that read-out and setting: to `O=C(c1ccc(/C=C/c2n[nH]c3ccccc23)cc1)N1CCN(C(=O)[C@@H]2CCCN2)CC1` [Compound 76, (S)-(E)-4-[(pyrrolidin-2-yl)carbonyl]-1-{4-[2-(1H-indazol-3-yl)vinyl]benzoyl}piperazine] belongs 93.9%; to `COc1cc(/C=C/c2n[nH]c3ccccc23)ccc1OCCN1CCOCC1` [Compound 30, (E)-3-{2-[3-methoxy-4-(2-morpholinoethoxy)phenyl]vinyl}-1H-indazole hydrochloride], 98.1%. In the case of `CC(C)(C)OC(=O)N1CCN(C(=O)c2ccc(/C=C/c3n[nH]c4ccccc34)cc2)CC1` [Compound 63, (E)-4-{4-[2-(1H-indazol-3-yl)vinyl]benzoyl)piperazine-1-carboxylic acid 1,1-dimethylethylester], the inhibition at 10 µM at human Flt-3 was 97.4%. The same measure, in the same setting: next, `O=C(c1ccc(/C=C/c2n[nH]c3ccccc23)cc1)N1CCN(C(=O)[C@H]2CCNC2)CC1` [Compound 72, (S)-(E)-1-{4-[2-(1H-indazol-3-yl)vinyl]benzoyl}-4-(pyrrolidin-3-ylcarbonyl)piperazine dihydrochloride]: 95%; `CCOC(=O)N1CCN(C(=O)c2ccc(/C=C/c3n[nH]c4ccccc34)cc2)CC1` [Compound 66, (E)-1-{4-[2-(1H-indazol-3-yl)vinyl]benzoyl}-4-ethoxycarbonylpiperazine]: 95.7%.

Turning to `CC(C)(N)C(=O)N1CCN(C(=O)c2ccc(/C=C/c3n[nH]c4ccccc34)cc2)CC1.Cl.Cl` [Compound 74, (E)-4-(2-amino-2-methylpropionyl)-1-{4-[2-(1H-indazol-3-yl)vinyl]benzoyl}piperazine dihydrochrolide], the “Inhibitory activity on Flt-3 (%)” value on human Flt-3 is 97.0%. Take `CCN(CC)CCNC(=O)c1ccc(/C=C/c2n[nH]c3ccccc23)cc1` [Compound 68, (E)-N-[2-(diethylamino)ethyl]-4-[2-(1H-indazol-3-yl)vinyl]benzamide]: the inhibition at 10 µM against human Flt-3 was 94.4%. Same read-out and setting: to `Nc1cc(/C=C/c2n[nH]c3ccccc23)ccc1OCCN1CCOCC1` [Compound 38, (E)-3-{2-[3-amino-4-(2-morpholinoethoxy)phenyl]vinyl}-1H-indazole] belongs 99.2%; to `CN1CCC(C(=O)N2CCN(C(=O)c3ccc(/C=C/c4n[nH]c5ccccc45)cc3)CC2)CC1` [Compound 77, (E)-4-[(1-methylpiperidin-4-yl)carbonyl]-1-(4-[2-(1H-indazol-3-yl)vinyl]benzoyl)piperazine], 96.3%.
